From PMC10696740 (BMC Biology, 2023)
“And” between values parts separate entries of the source, which are not always exact repeats. Equal entries are not always repeated. “Also recorded” adds a separate entry of the source. Where two headings read alike, the source gives them in different places.

How the values were obtained:
[1] = target: PaFtfL (P. anaerobius formate tetrahydrofolate ligase) (Peptostreptococcus anaerobius ATCC 27337); assay: crystal structure; sitting drop vapour diffusion at 22 °C, 10 mg/ml protein; three crystal forms: apo, apo crystals soaked with 1 mM ATP, and protein mixed with 1 mM BBR; protomers A/B and C/D form two dimers that assemble into a tetramer
[2] = target: T1, hsMTHFD1 (Homo sapiens, UniProt P11586); conditions: BLI, 1:1 binding model
T1 construct: His6 tag with thrombin site of pET28a (inferred) (N); made in house; host or cells: E. coli BL21 (DE3)
Description: (§1) A streptavidin matrix-coated sensor chip (SA chip) was firstly equilibrated with buffer A (lysis buffer with 0.05% Tween 20) followed with the immobilization BBP (200 μM) on the SA chip. Next, proteins with increasing concentrations (0.23, 0.91, 3.63, 14.50, and 58.00 μM) were passed on to the chip for the measurement of changes in response unit (nm). The program comprises the stabilization of the baseline with the buffer A for 1 min, 6 min incubation of the BBP with the SA chip for immobilization, stabilizing the baseline again for 3 min, association enabling interaction between proteins and compounds for 4 min, and dissociation for 4 min followed by a regeneration step. […] Raw data were pre-processed, analyzed, and fitted using the 1:1 binding model in the manufacturer’s software (9.0, Pall ForteBio Corp, Menlo Park, CA, USA) to generate kinetic parameters.

[3] = target: T2, hsMTHFD1L (Homo sapiens, UniProt Q6UB35); conditions: BLI, 1:1 binding model
Description: as §1

[4] = test system: Lactobacillus bulgaricus BD 15; assay: Effect of BBR on the growth of probiotics; conditions: L. bulgaricus BD 15
[5] = target: FtfL from Clostridium perfringens (Clostridium perfringens, UniProt Q0TMI3); assay: biochemical
[6] = target: FtfL from Lactococcus lactis (Lactococcus lactis subsp. lactis, UniProt Q9CH07); assay: Inhibition of FtfL enzymatic activity; assay type: biochemical
Description: (§2) The activities of the FtfL enzymes were measured according to the protocol described previously.
(§3) Then, the reaction was initiated by adding substrates (0.1 mM tetrahydrofolate, 2 mM MgCl2, 0.05 mM ATP, and 8 mM sodium formate).
(§4) The product was detected with a maximum absorbance at 350 nm (ε = 24.9 mM^−1 cm^−1) using FLUOstar OPTIMA (BMG LABTECH, Offenburgh, Germany). The reaction was performed at 30 °C. The control reaction was performed by replacing BBR with DMSO. […] Data analysis was performed in GraphPad Prism 7.0.

[7] = target: FtfL from Lactobacillus plantarum (Lactiplantibacillus plantarum, UniProt Q88W76); assay: Inhibition of FtfL enzymatic activity; assay type: biochemical; conditions: 100 nM enzyme
Description: as §2, §3, §4

[8] = test system: FtfL from Clostridium sporogenes; assay: Inhibition of FtfL enzymatic activity; assay type: biochemical; conditions: ns = no significance, not inhibited by BBR
Description: as §2, §3, §4

[9] = target: T3, PaFtfL (Peptostreptococcus anaerobius, UniProt A0A379CIH2); assay: Inhibition of FtfL enzymatic activity; assay type: biochemical; conditions: Inhibited by BBR (IC50), FtfL from Peptostreptococcus anaerobius, 20 nM enzyme
T3 sequence (A0A379CIH2 1-558): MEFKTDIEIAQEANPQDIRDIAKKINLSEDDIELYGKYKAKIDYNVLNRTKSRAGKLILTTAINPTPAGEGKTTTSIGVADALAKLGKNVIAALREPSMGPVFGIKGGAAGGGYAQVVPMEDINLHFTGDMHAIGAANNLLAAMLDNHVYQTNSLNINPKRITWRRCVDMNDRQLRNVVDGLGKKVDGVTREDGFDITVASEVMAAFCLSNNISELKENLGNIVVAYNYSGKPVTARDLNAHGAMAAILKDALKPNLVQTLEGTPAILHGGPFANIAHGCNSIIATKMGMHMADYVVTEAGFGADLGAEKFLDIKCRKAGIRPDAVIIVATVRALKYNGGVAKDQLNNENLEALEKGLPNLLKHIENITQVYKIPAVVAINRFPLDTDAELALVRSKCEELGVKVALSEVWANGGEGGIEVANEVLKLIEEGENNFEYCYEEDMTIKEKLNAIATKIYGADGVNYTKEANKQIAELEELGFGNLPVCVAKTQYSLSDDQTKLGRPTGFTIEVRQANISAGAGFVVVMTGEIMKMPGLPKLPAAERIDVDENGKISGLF
Description: as §2, §3, §4

[10] = target: FtfL from Bacteroides fragilis (Bacteroides fragilis, UniProt Q64U80); assay: Inhibition of FtfL enzymatic activity; assay type: biochemical
Description: as §2, §3, §4

[11] = target: FtfL from Parabacteroides distasonis (Parabacteroides distasonis, UniProt A6LAR6); assay: Inhibition of FtfL enzymatic activity; assay type: biochemical
Description: as §2, §3, §4

[12] = target: FtfL from Clostridium ljungdahlii (Clostridium ljungdahlii, UniProt D8GTX8); assay: Inhibition of FtfL enzymatic activity; assay type: biochemical
Description: as §2, §3, §4

[13] = target: FtfL from Clostridium symbiosum (Clostridium symbiosum, UniProt E7GR72); assay: Inhibition of FtfL enzymatic activity; assay type: biochemical
Description: as §2, §3, §4

[14] = test system: Fusobacterium nucleatum ATCC 10953; assay: Growth inhibition of CRC pathogenic bacteria by BBR; conditions: F. nucleatum ATCC 10953; 0.3 mM and 0.6 mM BBR
[15] = target: T3, PaFtfL; conditions: 40 μM BBR
[16] = test system: Lactococcus lactis DSM 20481; assay: Growth inhibition of CRC pathogenic bacteria by BBR; conditions: L. lactis DSM 20481; 0.3 mM and 0.6 mM BBR
[17] = test system: Clostridium symbiosum ATCC 14940; assay: as above; conditions: C. symbiosum ATCC 14940; 0.3 mM and 0.6 mM BBR
[18] = target: T3, PaFtfL; parameters: species or system P. anaerobius; conditions: BLI, wildtype PaFtfL, immobilized BBP, 1:1 binding model
Description: as §1

[19] = test system: Peptostreptococcus anaerobius ATCC 27337; assay: Growth inhibition of CRC pathogenic bacteria by BBR; conditions: P. anaerobius ATCC 27337; 0.3 mM and 0.6 mM BBR
[20] = test system: Lactobacillus acidophilus ATCC 4356; assay: Effect of BBR on the growth of probiotics; conditions: L. acidophilus ATCC 4356
[21] = test system: Lactobacillus reuteri DSM 17938; assay: Effect of BBR on the growth of probiotics; conditions: L. reuteri DSM 17938
[22] = target: FtfL from Fusobacterium nucleatum (Fusobacterium nucleatum, UniProt Q8RHF4); assay: Inhibition of FtfL enzymatic activity; assay type: biochemical
[23] = target: FtfL from Vibrio cholerae (Vibrio cholerae, UniProt Q9KLX7); assay: Inhibition of FtfL enzymatic activity; assay type: biochemical
[24] = test system: Lactobacillus plantarum DSM 13171; assay: Effect of BBR on the growth of probiotics; conditions: L. plantarum DSM 13171
[25] = test system: Streptococcus faecalis ATCC 19433; assay: Growth inhibition of CRC pathogenic bacteria by BBR; conditions: S. faecalis ATCC 19433; 0.3 mM and 0.6 mM BBR
[26] = target: PaFtfL Y229A; assay type: binding, P. anaerobius; conditions: BLI, allosteric site mutant
Description: as §1

[27] = target: PaFtfL F383A (Peptostreptococcus anaerobius, UniProt A0A379CIH2, F383A); assay type: binding, P. anaerobius; conditions: BLI
Description: as §1

[28] = target: PaFtfL Y229A/F383A/W411A; assay type: binding, P. anaerobius; conditions: BLI, tri-mutant
Description: as §1

[29] = test system: Lactobacillus fermentum CGMCC 1.1880; assay: Effect of BBR on the growth of probiotics; conditions: L. fermentum CGMCC 1.1880
[30] = target: T2, hsMTHFD1L; assay: Inhibition of hsMTHFD1L ligase activity; assay type: biochemical; conditions: 0.4 mM BBR
Description: (§5) Then, the reaction was initiated by adding substrates (2 mM tetrahydrofolate, 10 mM MgCl2, 40 mM sodium formate, and 5 mM ATP).
as §4

[31] = target: T1, hsMTHFD1; assay: Inhibition of hsMTHFD1 ligase activity; assay type: biochemical; conditions: hsMTHFD1, 0.4 mM BBR
Description: as §5, §4

[32] = target: FtfL from Clostridioides difficile (Clostridioides difficile, UniProt Q189R2); assay: Inhibition of FtfL enzymatic activity; assay type: biochemical

T2 sequence (Q6UB35 349-978 limits assumed): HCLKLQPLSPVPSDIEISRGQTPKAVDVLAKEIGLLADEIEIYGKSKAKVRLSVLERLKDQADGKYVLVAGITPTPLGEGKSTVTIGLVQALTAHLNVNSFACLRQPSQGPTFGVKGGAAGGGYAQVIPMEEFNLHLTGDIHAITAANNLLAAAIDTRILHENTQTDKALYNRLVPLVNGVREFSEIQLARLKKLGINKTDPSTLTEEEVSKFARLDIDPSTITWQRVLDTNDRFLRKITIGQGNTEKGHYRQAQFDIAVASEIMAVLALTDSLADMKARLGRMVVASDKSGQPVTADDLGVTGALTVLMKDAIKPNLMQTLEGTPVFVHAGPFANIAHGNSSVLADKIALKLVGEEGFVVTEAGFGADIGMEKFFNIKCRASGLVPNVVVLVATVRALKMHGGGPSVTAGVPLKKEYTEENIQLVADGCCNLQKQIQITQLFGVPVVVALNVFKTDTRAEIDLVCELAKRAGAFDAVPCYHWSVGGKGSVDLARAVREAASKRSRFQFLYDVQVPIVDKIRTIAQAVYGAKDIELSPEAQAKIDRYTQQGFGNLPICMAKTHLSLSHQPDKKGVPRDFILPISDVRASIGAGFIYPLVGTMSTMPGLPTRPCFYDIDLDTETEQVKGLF
T1 sequence (P11586 whole entry): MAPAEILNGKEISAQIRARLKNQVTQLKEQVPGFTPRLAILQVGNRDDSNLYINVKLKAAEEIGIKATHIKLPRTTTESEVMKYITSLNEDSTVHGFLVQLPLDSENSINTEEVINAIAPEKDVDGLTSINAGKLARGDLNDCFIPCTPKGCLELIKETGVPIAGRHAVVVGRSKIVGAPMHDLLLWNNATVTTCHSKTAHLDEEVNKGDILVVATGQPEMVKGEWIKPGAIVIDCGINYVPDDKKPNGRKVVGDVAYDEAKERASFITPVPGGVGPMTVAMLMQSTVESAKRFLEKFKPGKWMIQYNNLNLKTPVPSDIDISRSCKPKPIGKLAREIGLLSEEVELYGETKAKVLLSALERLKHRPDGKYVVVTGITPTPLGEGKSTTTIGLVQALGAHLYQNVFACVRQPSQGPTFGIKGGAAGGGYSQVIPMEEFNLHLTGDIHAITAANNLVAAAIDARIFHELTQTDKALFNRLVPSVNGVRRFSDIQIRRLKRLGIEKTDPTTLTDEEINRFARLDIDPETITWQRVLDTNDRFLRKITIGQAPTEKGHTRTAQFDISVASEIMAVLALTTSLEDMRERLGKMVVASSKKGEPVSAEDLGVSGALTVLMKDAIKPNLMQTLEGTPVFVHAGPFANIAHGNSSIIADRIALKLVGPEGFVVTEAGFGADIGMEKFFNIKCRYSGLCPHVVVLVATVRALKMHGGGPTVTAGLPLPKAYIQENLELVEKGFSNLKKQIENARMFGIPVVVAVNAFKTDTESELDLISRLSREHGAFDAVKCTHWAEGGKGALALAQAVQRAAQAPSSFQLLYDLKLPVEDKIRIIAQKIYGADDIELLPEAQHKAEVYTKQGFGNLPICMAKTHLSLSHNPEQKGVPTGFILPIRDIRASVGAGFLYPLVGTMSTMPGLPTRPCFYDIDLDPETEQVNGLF
Chain of FtfL from Lactobacillus plantarum (Q88W76 whole entry): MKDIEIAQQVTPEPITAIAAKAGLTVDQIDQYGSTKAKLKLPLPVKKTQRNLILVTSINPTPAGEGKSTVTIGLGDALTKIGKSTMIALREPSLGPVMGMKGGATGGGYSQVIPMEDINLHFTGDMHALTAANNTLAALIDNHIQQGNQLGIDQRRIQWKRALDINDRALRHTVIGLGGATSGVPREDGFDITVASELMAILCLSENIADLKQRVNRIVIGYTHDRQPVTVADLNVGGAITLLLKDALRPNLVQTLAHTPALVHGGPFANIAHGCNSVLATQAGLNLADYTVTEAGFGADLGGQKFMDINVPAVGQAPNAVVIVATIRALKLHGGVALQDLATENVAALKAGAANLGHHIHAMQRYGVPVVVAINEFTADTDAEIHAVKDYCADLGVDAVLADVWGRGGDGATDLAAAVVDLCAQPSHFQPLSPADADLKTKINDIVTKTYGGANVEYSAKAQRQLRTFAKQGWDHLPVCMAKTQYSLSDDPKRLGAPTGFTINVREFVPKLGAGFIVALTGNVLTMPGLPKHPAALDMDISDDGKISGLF
Chain of FtfL from Clostridium ljungdahlii (D8GTX8 entry or part of it): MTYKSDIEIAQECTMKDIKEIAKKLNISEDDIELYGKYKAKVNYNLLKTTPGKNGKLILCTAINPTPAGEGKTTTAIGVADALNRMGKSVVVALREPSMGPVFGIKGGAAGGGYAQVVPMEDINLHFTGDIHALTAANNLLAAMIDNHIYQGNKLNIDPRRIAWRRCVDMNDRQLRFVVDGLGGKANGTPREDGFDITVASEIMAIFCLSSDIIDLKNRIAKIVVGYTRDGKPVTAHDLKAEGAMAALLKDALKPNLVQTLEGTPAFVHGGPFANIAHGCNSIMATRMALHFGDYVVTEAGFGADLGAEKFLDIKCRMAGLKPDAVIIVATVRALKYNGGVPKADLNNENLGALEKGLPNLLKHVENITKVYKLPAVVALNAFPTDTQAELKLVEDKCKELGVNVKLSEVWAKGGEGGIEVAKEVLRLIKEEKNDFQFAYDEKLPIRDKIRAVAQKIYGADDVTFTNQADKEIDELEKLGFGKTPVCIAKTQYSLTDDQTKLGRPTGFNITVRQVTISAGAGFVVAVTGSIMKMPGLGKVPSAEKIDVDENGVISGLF
Chain of FtfL from Lactococcus lactis (Q9CH07 whole entry): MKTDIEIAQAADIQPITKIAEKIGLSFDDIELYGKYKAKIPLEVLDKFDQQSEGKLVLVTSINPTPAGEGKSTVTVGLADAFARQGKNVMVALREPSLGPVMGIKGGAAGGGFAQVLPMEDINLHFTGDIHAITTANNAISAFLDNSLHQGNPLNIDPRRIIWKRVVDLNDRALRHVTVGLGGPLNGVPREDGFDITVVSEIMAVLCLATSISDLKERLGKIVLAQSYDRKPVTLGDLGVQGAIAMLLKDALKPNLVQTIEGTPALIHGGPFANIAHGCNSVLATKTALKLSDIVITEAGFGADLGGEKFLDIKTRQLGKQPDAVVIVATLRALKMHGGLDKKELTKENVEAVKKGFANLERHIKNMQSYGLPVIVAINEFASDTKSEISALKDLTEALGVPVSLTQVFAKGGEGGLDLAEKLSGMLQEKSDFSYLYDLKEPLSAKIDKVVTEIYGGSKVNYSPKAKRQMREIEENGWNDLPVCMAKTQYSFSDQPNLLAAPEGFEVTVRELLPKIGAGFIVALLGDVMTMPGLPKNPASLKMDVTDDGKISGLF

PaFtfL (P. anaerobius formate tetrahydrofolate ligase) (enzyme)
stoichiometry N [1]: 4

COc1ccc2cc3[n+](cc2c1OC)CCc1cc2c(cc1-3)OCO2 [BBR, Berberine]
Kd [2]: 2.3 µM
Kd [3]: 0.158 µM
effect on bacterial growth [4]: inhibits growth
IC50 [5]: 105 ± 3.15 µM
IC50 [6]: 118 ± 18.5 µM
IC50 [7]: > 200 µM
Inhibited by BBR (IC50) [8]: ns
IC50 [9]: 62 µM and 62.3 µM
IC50 [10]: 105 ± 69.8 µM
IC50 [11]: > 200 µM
IC50 [12]: 83.8 ± 10 µM
IC50 [13]: 129 ± 17.1 µM
effect on bacterial growth [14]: dose-dependent inhibition; also recorded: inhibits the growth
apparent Kcat of PaFtfL ([15]; substrate ATP): 16.7 ± 0.83 s⁻¹
apparent Vmax of PaFtfL ([15]; substrate ATP): 0.010 ± 0.0005 mM/min
apparent Kcat of PaFtfL ([15]; substrate THF): 78.3 ± 6.7 s⁻¹
apparent Vmax of PaFtfL ([15]; substrate THF): 0.047 ± 0.004 mM/min
effect on bacterial growth [16]: dose-dependent inhibition; also recorded: inhibits the growth
effect on bacterial growth [17]: dose-dependent inhibition; also recorded: inhibits the growth
Kd [18]: 0.674 µM
effect on bacterial growth [19]: dose-dependent inhibition; also recorded: inhibits the growth
effect on bacterial growth [20]: promotes growth
effect on bacterial growth [21]: little effect
IC50 [22]: 106 ± 27 µM
IC50 [23]: 130 ± 12.3 µM
effect on bacterial growth [24]: little effect
effect on bacterial growth [25]: dose-dependent inhibition; also recorded: inhibits the growth
binding affinity of BBR with PaFtfL Y229A [26]: The affinity is too weak to fit
reduction of binding affinity versus wildtype PaFtfL ([27]; F383A): 34 fold
Kd ([27]; active site mutant): 23.1 µM
binding affinity of BBR with PaFtfL Y229A/F383A/W411A [28]: non-detectable
effect on bacterial growth [29]: little effect
decrease of ligase enzyme activity [30]: 36%
decrease of ligase enzyme activity [31]: 58%
IC50 [32]: 158 ± 68.7 µM
